Data as given in ChEMBL document CHEMBL3228010, “Potential antitumor agents. 29. Quantitative structure-activity relationships for the antileukemic bisquaternary ammonium heterocycles” (J Med Chem, 1979).

Experiments:
L1210 [1] = assay: Antitumor activity against mouse L1210 cells […] in ip dosed C3H X DBA2 F1 hybrid mouse on day 0 and dosed at LD10 level once daily on days 1 to 5 assessed as increase in life span relative to control; assay type: functional
Mus musculus = assay: Toxicity in ip dosed C3H X DBA2 F1 hybrid mouse […] with mouse L1210 cells on day 0 and dosed once daily on days 1 to 5 measured after 50 days; assay type: organism-based; settings: in vivo, 1200 h
L1210 [2] = assay: Antitumor activity against mouse L1210 cells […] in ip dosed C3H X DBA2 F1 hybrid mouse on day 0 and dosed once daily on days 1 to 5 assessed as increase in life span relative to control; assay type: functional
[3] = Lipophilic-hydrophilic balance, Rm of the compound by partition chromatography; assay type: physicochemical

Structure (SMILES)	log(ILSmax) (L1210 [1])	LD10 (Mus musculus) [mg/kg]	D40 (L1210 [2]) [mg/kg]	Rm [3]
CCC[n+]1cc(-c2ccc(NC(=O)c3ccc(Nc4cc[n+](CCC)c5ccccc45)cc3)cc2)c(N)nc1N.[I-].[I-]	1.85	40	15.8	0.68
CC[n+]1ccc(Nc2ccc(NC(=O)c3ccc(Nc4cc[n+](CC)c5ccc(N)cc45)cc3)cc2N)cc1.[I-].[I-]	2.1	6.5	1.5	0.15
CCC[n+]1ccc(Nc2ccc(NC(=O)c3ccc(Nc4cc[n+](CCC)c5ccc(N)cc45)cc3N)cc2)cc1.[I-].[I-]	2.03	20	5.9	0.52
CCCC[n+]1cccc2cc(NC(=O)c3ccc(C(=O)Nc4ccc5c(ccc[n+]5CCCC)c4)c(N)c3)ccc21.Cc1ccc(S(=O)(=O)[O-])cc1.Cc1ccc(S(=O)(=O)[O-])cc1	1.72	18	9	0.6
CC[n+]1ccc(Nc2ccc(NC(=O)c3ccc(Nc4cc[n+](CC)c5ccccc45)cc3)cc2N)cc1.[I-].[I-]	1.69	10	5.1	0.56
CC[n+]1ccc(Nc2ccc(NC(=O)c3ccc(Nc4cc[n+](CC)c5ccccc45)cc3N)cc2)cc1.[I-].[I-]	1.95	53	11.9	0.65
CC[n+]1cc(-c2ccc(NC(=O)c3ccc(Nc4cc[n+](CC)c5ccc(N)cc45)cc3N)cc2)c(N)nc1N.Cc1ccc(S(=O)(=O)[O-])cc1.Cc1ccc(S(=O)(=O)[O-])cc1	2.28	100	8.6	0.33
CC[n+]1cccc2cc(NC(=O)c3ccc(C(=O)Nc4ccc5c(ccc[n+]5CC)c4)nc3)ccc21.Cc1ccc(S(=O)(=O)[O-])cc1.Cc1ccc(S(=O)(=O)[O-])cc1	1.42	6	6	-0.15
CC[n+]1cccc2cc(NC(=O)COc3ccc(C(=O)Nc4ccc5c(ccc[n+]5CC)c4)cc3)ccc21.Cc1ccc(S(=O)(=O)[O-])cc1.Cc1ccc(S(=O)(=O)[O-])cc1	1.4	4	4	-0.11
CCC[n+]1ccc(Nc2ccc(C(=O)Nc3ccc(/C(C)=N/NC(=N)N)cc3)c(N)c2)c2cc(N)ccc21.Cc1ccc(S(=O)(=O)O)cc1.Cc1ccc(S(=O)(=O)[O-])cc1	2.2	60	10	0.07
CCCC[n+]1cccc2cc(NC(=O)COc3ccc(C(=O)Nc4ccc5c(ccc[n+]5CCCC)c4)cc3)ccc21.Cc1ccc(S(=O)(=O)[O-])cc1.Cc1ccc(S(=O)(=O)[O-])cc1	1.96	210	80	0.41
CC[n+]1ccc(Nc2ccc(C(=O)Nc3ccc(Nc4cc[n+](CC)c5ccccc45)cc3)cc2)cc1.[Br-].[Br-]	2.16	10	0.6	0.45
CC[n+]1cccc(NC(=O)c2ccc(NC(=O)c3ccc(C(=O)Nc4ccc(C(=O)Nc5ccc[n+](CC)c5)cc4)c(OC)c3)cc2)c1.Cc1ccc(S(=O)(=O)[O-])cc1.Cc1ccc(S(=O)(=O)[O-])cc1	1.85	20	18	0.55
CCC[n+]1cccc2cc(NC(=O)c3ccc(C(=O)Nc4ccc5c(ccc[n+]5CCC)c4)cc3)ccc21.Cc1ccc(S(=O)(=O)[O-])cc1.Cc1ccc(S(=O)(=O)[O-])cc1	1.89	21	15	0.3
CC[n+]1cccc(NC(=O)c2ccc(NC(=O)c3ccc(C(=O)Nc4ccc(C(=O)Nc5ccc[n+](CC)c5)cc4OC)cc3)c(OC)c2)c1.Cc1ccc(S(=O)(=O)[O-])cc1.Cc1ccc(S(=O)(=O)[O-])cc1	1.86	25	10.3	-0.15
CC[n+]1cccc(NC(=O)c2ccc(NC(=O)c3ccc(C(=O)Nc4ccc(C(=O)Nc5ccc[n+](CC)c5)c(N)c4)c(N)c3)cc2N)c1.Cc1ccc(S(=O)(=O)[O-])cc1.Cc1ccc(S(=O)(=O)[O-])cc1	2.29	14	2.6	-0.9
CCC[n+]1cccc(NC(=O)c2ccc(NC(=O)c3ccc(C(=O)Nc4ccc(C(=O)Nc5ccc[n+](CCC)c5)cc4OC)cc3)c(OC)c2)c1.Cc1ccc(S(=O)(=O)[O-])cc1.Cc1ccc(S(=O)(=O)[O-])cc1	1.6	140	140	0.3

Structure (SMILES)	log(ILSmax) (L1210 [1])	LD10 (Mus musculus) [mg/kg]	D40 (L1210 [2]) [mg/kg]	Rm [3]
CCCCC[n+]1cccc2cc(NC(=O)c3ccc(C(=O)Nc4ccc5c(ccc[n+]5CCCCC)c4)c(N)c3)ccc21.Cc1ccc(S(=O)(=O)[O-])cc1.Cc1ccc(S(=O)(=O)[O-])cc1	1.51	16	15	0.85
CC[n+]1cccc(C(=O)Nc2ccc(NC(=O)c3ccc(C(=O)Nc4ccc5c(ccc[n+]5CC)c4)cc3)cc2)c1.Cc1ccc(S(=O)(=O)[O-])cc1.Cc1ccc(S(=O)(=O)[O-])cc1	1.89	6	3.1	-0.12
CC[n+]1cccc2cc(NC(=O)c3ccc(NC(=O)c4ccc(C(=O)Nc5ccc6c(ccc[n+]6CC)c5)cc4)cc3)ccc21.Cc1ccc(S(=O)(=O)[O-])cc1.Cc1ccc(S(=O)(=O)[O-])cc1	2.05	45	13	-0.52
COCC[n+]1cccc2cc(NC(=O)c3ccc(C(=O)Nc4ccc5c(ccc[n+]5CCOC)c4)cc3)ccc21.Cc1ccc(S(=O)(=O)[O-])cc1.Cc1ccc(S(=O)(=O)[O-])cc1	2.04	17	11	0.4
CCC[n+]1cccc(-c2ccc(NC(=O)/C=C/c3ccc(C(=O)Nc4ccc(-c5ccc(-c6ccc(-c7ccc[n+](CCC)c7)cc6)cc5)cc4)cc3)cc2)c1.Cc1ccc(S(=O)(=O)[O-])cc1.Cc1ccc(S(=O)(=O)[O-])cc1	2.2	20	6.4	0.02
CC[n+]1ccc(Nc2ccc(NC(=O)c3ccc(Nc4cc[n+](CC)c5ccc(N)cc45)cc3N)cc2)cc1.[I-].[I-]	2.33	17	1.4	0.37
CC[n+]1cccc2cc(NC(=O)/C=C/c3ccc(C(=O)Nc4ccc5c(ccc[n+]5CC)c4)cc3)ccc21.Cc1ccc(S(=O)(=O)[O-])cc1.Cc1ccc(S(=O)(=O)[O-])cc1	1.7	9	5	0.11
CCC[n+]1cccc(-c2ccc(NC(=O)c3ccc(C(=O)Nc4ccc(-c5ccc(-c6ccc(-c7ccc[n+](CCC)c7)cc6)cc5)cc4)cc3)cc2)c1.Cc1ccc(S(=O)(=O)[O-])cc1.Cc1ccc(S(=O)(=O)[O-])cc1	2.16	59	4	-0.25
CC[n+]1cccc(NC(=O)c2ccc(NC(=O)c3ccc(C(=O)Nc4ccc(C(=O)Nc5ccc[n+](CC)c5)c(OC)c4)cc3)cc2OC)c1.Cc1ccc(S(=O)(=O)[O-])cc1.Cc1ccc(S(=O)(=O)[O-])cc1	1.76	40	24	0.45
CC[n+]1ccc(-c2ccc(NC(=O)c3ccc(Nc4cc[n+](CC)c5ccccc45)cc3)cc2)cc1.Cc1ccc(S(=O)(=O)[O-])cc1.Cc1ccc(S(=O)(=O)[O-])cc1	1.98	10	2.7	0.55
CCCC[n+]1cccc(NC(=O)c2ccc(NC(=O)/C=C/c3ccc(C(=O)Nc4ccc(C(=O)Nc5ccc[n+](CCCC)c5)cc4)cc3)cc2)c1.Cc1ccc(S(=O)(=O)[O-])cc1.Cc1ccc(S(=O)(=O)[O-])cc1	1.72	24	14	0.4
CCCC[n+]1cccc2cc(NC(=O)c3ccc(C(=O)Nc4ccc5c(ccc[n+]5CCCC)c4)nc3)ccc21.Cc1ccc(S(=O)(=O)[O-])cc1.Cc1ccc(S(=O)(=O)[O-])cc1	1.87	175	120	0.31
C[n+]1ccc(Nc2ccc(NC(=O)c3ccc(Nc4cc[n+](C)c5cc(N)ccc45)cc3N)cc2)cc1.[Br-].[Br-]	2.45	20	1.2	-0.12
CCC[n+]1cccc(NC(=O)c2ccc(NC(=O)c3ccc(C(=O)Nc4ccc(C(=O)Nc5ccc[n+](CCC)c5)cc4)c(OC)c3)cc2)c1.Cc1ccc(S(=O)(=O)[O-])cc1.Cc1ccc(S(=O)(=O)[O-])cc1	1.6	22	22	0.78
CCC[n+]1cccc2cc(NC(=O)/C=C/c3ccc(C(=O)Nc4ccc5c(ccc[n+]5CCC)c4)cc3)ccc21.Cc1ccc(S(=O)(=O)[O-])cc1.Cc1ccc(S(=O)(=O)[O-])cc1	2	20	4.3	0.5
CCC[n+]1cc(-c2ccc(NC(=O)c3ccc(Nc4cc[n+](CCC)c5ccc(N)cc45)cc3N)cc2)c(N)nc1N.Cc1ccc(S(=O)(=O)[O-])cc1.Cc1ccc(S(=O)(=O)[O-])cc1	2.03	50	13.7	0.56
